Reference: patent US20240190856A1, “MELANOCORTIN-4 RECEPTOR AGONIST” (LG CHEM, LTD., priority 2021, published 2024)
Where a name gives a salt, the structure may show the parent alone.

Columns and labels:
[1] = biological target: T1, MC4R (Homo sapiens, UniProt P32245); assay: cAMP assay (cAMP Hunter Gs-coupled CHO-K1 cell line); assay type: cell-based; parameters: expressed in transfected cells; host or cells: CHO-K1 (cAMP Hunter Gs-coupled cell line); conditions: CHO-K1 cells overexpressing MC4R, 37° C. for 30 minutes
From the text: The melanocortin receptor is a type of G-protein coupled receptor (GPCR), and the main role of G-protein is to activate secondary transducers to regulate cellular responses to many physiological stimuli through signal transduction. MC4R is a Gs-coupled receptor, and it is known that if MC4R interacts with an agonist, adenylate cyclase (AC) is activated to increase the concentration of cyclic AMP (cAMP), which is one of the secondary transducers in cells. Therefore, it is possible to evaluate the activity of melanocortin receptors by measuring the generation of cAMP signals.
After cAMP Hunter Gs-coupled cell lines (CHO-K1 cell line) in which each of MC1R, MC3R, MC4R and MC5R was overexpressed were established so that the increase in the cAMP level in cells due to agonist reaction was measurable, the cells were inoculated into each well of a white cell culture plate and incubated for 24 hours in a 37° C. incubator in the presence of 5% CO2. After the incubation, the medium was removed, and 15 μl of a 2:1 HBBS/10 mM HEPES:cAMP XS+Ab reagent was added. After 5 μl of the sample diluted 4 times with buffer was added, the vehicle concentration was set to 1%, and the MC4R agonist compound diluted at each step concentration was added, followed by reaction at 37° C. for 30 minutes. The activity (%) of each agonist compound is expressed as 100% ×(average RLU value of sample'average RLU value of vehicle control)/(average RLU value of max control−average RLU value of vehicle control), and the value was analyzed by CBIS data analysis suite (ChemInnovation, CA).
Target sequence in this assay (P32245 whole entry, species assumed): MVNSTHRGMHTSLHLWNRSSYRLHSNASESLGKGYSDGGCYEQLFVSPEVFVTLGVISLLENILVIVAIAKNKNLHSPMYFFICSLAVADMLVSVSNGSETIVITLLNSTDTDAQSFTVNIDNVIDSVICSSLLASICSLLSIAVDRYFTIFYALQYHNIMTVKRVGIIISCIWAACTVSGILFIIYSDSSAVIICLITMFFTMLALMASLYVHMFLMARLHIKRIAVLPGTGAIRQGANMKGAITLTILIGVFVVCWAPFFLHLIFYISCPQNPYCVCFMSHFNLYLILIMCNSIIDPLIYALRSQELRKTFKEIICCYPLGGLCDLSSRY

[2] = biological target: T1, MC4R; assay: Binding affinity (125I-NDP-α-MSH displacement, membranes of HEK-293 cells expressing MC4R); parameters: expressed in transfected cells; host or cells: HEK-293 cells, membrane preparation; conditions: 0.02 nM 125I-NDP-α-MSH, 37° C. for two hours, pH 7.0
From the text: Five subtypes of melanocortin receptor (MCR) in vivo are known, and it is known that MC4R, which is Subtype 4, is involved in energy metabolism and weight control. Since other MCR subtypes are involved in the regulation of various functions in vivo such as skin pigmentation, energy homeostasis, and exocrine functions, securing selectivity for MC4R of MC4R agonist compounds is very important in preventing possible side effects in the future. Therefore, the receptor binding abilities of MC4R agonists for each MCR subtype were measured.
After the CHO-K 1 cell line expressing human recombinant MC1R and the HEK-293 cell lines expressing MC3R, MC4R and MC5R were established, membranes were collected from each cell line. In a 96-well cell culture plate, 3 μg MC1R membrane and 0.04 nM ^125I-NDP-α-MSH per well were reacted at 37° C. for two hours. 3 μg MC3R and MC5R membrane and 0.035 nM ^125I-NDP-α-MSH were reacted at 37° C. for one hour, and […] MC4R membrane and 0.02 nM ^125I-NDP-α-MSH were reacted at 37° C. for two hours. At this time, 25 mM HEPES-KOH adsorption buffer (pH 7.0) containing MCR agonist diluted at each step concentration was added to each well and reacted. The reacted solution was transferred to a filter and washed with an adsorption buffer, and then radioactivity was measured. The value excluding the non-specific binding amount in the presence of 1 μM (MC1R) and 3 μM (MC3R, MC4R, MC5R) of NDP-α-MSH from each total binding amount was used as specific binding amounts of ^125I-NDP-α-MSH. The degree to which the ^125I-NDP-a-MSH specific binding was inhibited by the agonist diluted at each step concentration was measured. IC50 was expressed as the concentration of each agonist that inhibited specific binding of 50% of ^125I-NDP-α-MSH.
Tables 4-1 and 4-2 show the results of measuring the binding of melanocortin receptors of the compounds obtained by the above experiment in Ki (nM) units.
Target sequence in this assay (P32245 whole entry): as the sequence (P32245 whole entry, species assumed) above

[3] = biological target: T2, MC4R (melanocortin-4 receptor) (Homo sapiens, UniProt P32245); assay: Luciferase assay (CRE-LUC, HEK MC4R-Luc cells); assay type: cell-based; conditions: 5 h incubation, concentration inducing 50% of each agonist's own maximum luminescence
T2 construct: expressed in transfected cells
Method: In order to measure the agonist ability against MC4R (melanocortin-4 receptor), a cell line that permanently expresses the luciferase gene (CRE-LUC) under the control of MC4R and CRE (cAMP response element) was established. After a mammalian cell expression vector (pCDNA3 (Neo)) (Invitrogen) containing the MC4R gene was prepared, human embryonic kidney (HEK) cell lines were transformed by using Lipofectamine 2000 (Invitrogen) together with a vector (pCRE-Luc)(Stratagen) expressing a luciferase gene (CRE-LUC) under the control of a cAMP response element (CRE). Transformed cell lines (HEK MC4R-Luc) were incubated in a 37° C. incubator in the presence of 5% CO2 for 24 hours by using Dulbecco's Modified Eagles Medium (DMEM) containing 10% Heat-Inactivated Fetal Bovine Serum (GIBCO/BRL). The cell lines were incubated for four days in the presence of Dulbecco's Modified Eagles Medium (DMEM) containing 10 ml of selection medium (10% Heat-Inactivated Fetal Bovine Serum (GIBCO/BRL), 100 unit/ml of penicillin (GIBCO/BRL), 100 unit/ml of streptomycin (GIBCO/BRL), 800 μg/ml of Geneticin (G418) (GIBCO/BRL). The process of removing cells killed by the selection medium by replacing the medium with 10 ml of a new selection medium was repeated three times, once every 4 days. Individual colonies formed by the finally selected and propagated clones were transferred under a microscope to a 24-well cell culture plate containing 1 ml of selection medium per well and incubated for 4 days. Forskolin (SIGMA) was treated to a final concentration of 10 μM, and then incubated for five hours in a 37° C. incubator in the presence of 5% CO2. Each well was treated with 50 μl of a Bright-Glo luciferase reagent (Promega) and left at room temperature for 15 minutes, and then the luminescence of each well was measured by using a luminometer (Victor).
HEK MC4R-Luc cells were added to each well of a 96-well luminometer cell culture plate (Costar) to a size of 2.5×10^4 cells in 100 μl of a culture medium and then incubated in a 37° C. incubator in the presence of 6% CO2 for 18 hours. […] Each well was treated with 50 μl of a Bright-Glo luciferase reagent (Promega) and left at room temperature for five minutes, and then the luminescence of each well was measured by using a luminometer (Victor). […] EC0.5 MSH is expressed as a concentration that induces 50% of the maximum amount of luminescence that can be induced by NDP-α-MSH, and EC50 is expressed as a concentration that induces 50% of the maximum amount of luminescence that can be induced by each agonist. The measurements were measured using statistical software (Prizm).

T2 sequence (P32245 whole entry, species assumed): as above

EC50 [1] [nM]	Ki ([2]; Table 4-1) [nM]	EC50 [3] [nM]	Ki ([2]; Table 4-2) [nM]	SMILES
58.9	74	0.629		CC(C)(C)C(=O)N([C@H]1C[C@@H](C(=O)N2CCOCC2)N(C(=O)[C@@H]2CN(C(C)(C)C)C[C@H]2c2ccc(F)cc2F)C1)[C@H]1CC[C@@H](C)CC1 [Example 1, N-((3S,5S)-1-((3S,4R)-1-(tert-butyl)-4-(2,4-difluorophenyl)pyrrolidine-3-carbonyl)-5-(morpholine-4-carbonyl)pyrrolidin-3-yl)-N-((1s,4R)-4-methylcyclohexyl)pivalamide hydrochloride]
59.6	240	2.47		CC(C)C(=O)N([C@H]1C[C@@H](C(=O)N2CCOCC2)N(C(=O)[C@@H]2CN(C(C)(C)C)C[C@H]2c2ccc(F)cc2F)C1)[C@H]1CC[C@@H](C)CC1 [Example 2, N-((3S,5S)-1-((3S,4R)-1-(tert-butyl)-4-(2,4-difluorophenyl)pyrrolidine-3-carbonyl)-5-(morpholine-4-carbonyl)pyrrolidin-3-yl)-N-((1s,4R)-4-methylcyclohexyl)isobutyramide hydrochloride]
51.4		4.04	32	CC1(C)CCC(N(C(=O)C(C)(C)C)[C@H]2C[C@@H](C(=O)N3CCOCC3)N(C(=O)[C@@H]3CN(C(C)(C)C)C[C@H]3c3ccc(Cl)cc3)C2)CC1 [Example 6, N-((3S,5S)-1-((3S,4R)-1-(tert-butyl)-4-(4-chlorophenyl)pyrrolidine-3-carbonyl)-5-(morpholine-4-carbonyl)pyrrolidin-3-yl)-N-(4,4-dimethylcyclohexyl)pivalamide hydrochloride]
26.2	30	0.555		CC(C)(C)C(=O)N([C@H]1C[C@@H](C(=O)N2CCOCC2)N(C(=O)[C@@H]2CN(C(C)(C)C)C[C@H]2c2ccc(Cl)cc2F)C1)[C@H]1CC[C@@H](C)CC1 [Example 4, N-((3S,5S)-1-((3S,4R)-1-(tert-butyl)-4-(4-chloro-2-fluorophenyl)pyrrolidine-3-carbonyl)-5-(morpholine-4-carbonyl)pyrrolidin-3-yl)-N-((1s,4R)-4-methylcyclohexyl)pivalamide hydrochloride]
49.6		0.922	86	CC(C)C(=O)N([C@H]1C[C@@H](C(=O)N2CCOCC2)N(C(=O)[C@@H]2CN(C(C)(C)C)C[C@H]2c2ccc(Cl)cc2F)C1)[C@H]1CC[C@@H](C)CC1 [Example 3, N-((3S,5S)-1-((3S,4R)-1-(tert-butyl)-4-(4-chloro-2-fluorophenyl)pyrrolidine-3-carbonyl)-5-(morpholine-4-carbonyl)pyrrolidin-3-yl)-N-((1s,4R)-4-methylcyclohexyl)isobutyramide hydrochloride]
